Assay results reported in patent US5498624A, “Selected pyrazolyl derivatives” (Monsanto Company, priority 1995, dated 1996).

Key:
Assay type in all cases: in vivo
[1] = tested on: Erysiphe graminis f. sp. tritici; assay: Wheat Powdery Mildew Foliar Curative Treatment (WPM Cur); details: 20 ppm foliar curative, inoculation 48 hours prior to application
Experimental: A) Pathogen/Inoculum Production follow as per Example 2. (B) Host Propagation, (C) Compound Preparation and (D) Compound Application follow as per Example 1.
E) Inoculation/Incubation--Inoculation is accomplished as per Example 1, 48 hours prior to compound application. The incubation period is temporarily interrupted for chemical treatment, the plants are allowed to dry and then returned to the incubation chamber.
(G) Evaluation and (H) Data follow as per Example 1. The percent protection values for the compounds of the present invention are as set out in the Table below.

[2] = tested on: Septoria nodorum; assay: Wheat Glume Blotch Foliar Assay, curative (WGB Cur); details: application two days post-inoculation, * = averaged value
Experimental: A) Host Propagation--Winter wheat plants, cv. Caldwell, are grown in 5.7 cm^2 pots, three per pot, and maintained in a growth chamber set at 20° C., 80% RH with a 12 hour photoperiod.
B) Compound Preparation--A 1.0% stock solution of each of the compounds of the present invention is first prepared utilizing an appropriate solvent such as acetone, water or DMSO. This stock is then used to prepare the final spray solution which contains the compound at the desired dosage, eg 100 ppm and 20 ppm, acetone at 20% v/v, Tween®20 at .05% w/v, and water at about 80%. Commercial standard used is tebuconazole at equivalent rates.
C) Compound Application, Seedlings are sprayed at the two-leaf stage (GS 12) using a DeVilbiss Model 152 hand operated sprayer set at 15-20 psi. Six ml of the test solution per treatment are applied to three pots. In the protectant assay (EXAMPLE 8), the compound application is made two days pre-inoculation. In the curative assay (EXAMPLE 9), the compound is applied during a brief interruption of the disease incubation period two days post-inoculation. […]
E) Test Evaluation--Eight to ten days after removal from the high humidity chamber, or twelve to fourteen days after inoculation, treatments are evaluated by visually estimating the percentage of the leaf area (on the first leaf) covered with lesions. […] Percent disease, as well as percent control values are calculated. […]

[3] = tested on: Venturia inaequalis; assay: Apple Scab Foliar Assay (ASC Cur); details: 20 ppm, sprayed 72 hours after inoculation, apple seedlings
Experimental: Apple Scab Foliar Assay Methods (ASC Cur)--This assay is that of Example 1 except for the sequence of the chemical application and pathogen inoculation events. One month old apple seedlings are inoculated as described. 72 hours later, the plants are removed from the mist chamber and sprayed with the test chemicals and then returned to the mist-chamber after 1 to 2 hours. Disease evaluation is made on day 8-12.

C[C@H]1CCC[C@H](c2ccccc2NC(=O)c2cn(C)nc2C(F)F)C1 (relative stereo) [Number 3, 1H-pyrazole-4-carboxamide, 3-(difluoromethyl)-1-methyl-N-[2-(3-methylcyclohexyl)phenyl]-, trans-]
WPM Cur percent disease control [1]: 89%
WGB Cur percent control ([2]; 20 ppm): 62%
WGB Cur percent control ([2]; 100 ppm): 67%
ASC Cur percentage control [3]: 69%
